For the experiment, the system named is MV-4-11 cells. In words: Gene expression microarray analysis (Affymetrix PrimeView) and GSEA. The settings on record: ProbeSet 11720154_at; LIST B. Details: RFU PODN (11730768_x_at) / Fold change /veh PODN (11730768_x_at) / RFU LINC00158 (11744669_a_at) / Fold change /veh LINC00158 (11744669_a_at) / RFU DUSP10 (11751237_a_at) / Fold change /veh DUSP10 (11751237_a_at) / RFU ID3 (11757404_x_at) / Fold change /veh ID3 (11757404_x_at) / RFU PLEKHG5 (11737974_s_at) / Fold change /veh PLEKHG5 (11737974_s_at) / RFU LRRC4B (11730491_at) / Fold change /veh LRRC4B (11730491_at) / RFU GIMAP4 (11747438_a_at) / Fold change /veh GIMAP4 (11747438_a_at) / RFU KRT8 (11758183_x_at) / Fold change /veh KRT8 (11758183_x_at) / RFU CNN1 (11734310_a_at) / Fold change /veh CNN1 (11734310_a_at) / RFU VPS37D (11726825_at) / Fold change /veh VPS37D (11726825_at) / RFU C10orf10 (11716522_x_at) / Fold change /veh C10orf10 (11716522_x_at) / RFU KIR2DL2 /// KIR2DL4 /// KIR2DL5A /// KIR2DL5B /// KIR2DS1 /// KIR2DS2 /// KIR2DS3 /// KIR2DS4 /// KIR3DL3 /// KIR3DL3 /// KIR3DS1 (11738374_at) / Fold change /veh KIR2DL2 /// KIR2DL4 /// KIR2DL5A /// KIR2DL5B /// KIR2DS1 /// KIR2DS2 /// KIR2DS3 /// KIR2DS4 /// KIR3DL3 /// KIR3DL3 /// KIR3DS1 (11738374_at) / RFU C1QL1 (11718748_at) / Fold change /veh C1QL1 (11718748_at) / RFU TMPRSS4 (11747572_a_at) / Fold change /veh TMPRSS4 (11747572_a_at) / RFU HAMP (11756126_x_at) / Fold change /veh HAMP (11756126_x_at) / RFU RNFT2 (11725882_a_at) / Fold change /veh RNFT2 (11725882_a_at) / RFU NR4A2 (11747474_a_at) / Fold change /veh NR4A2 (11747474_a_at) / RFU ABCC12 (11746883_a_at) / Fold change /veh ABCC12 (11746883_a_at) / RFU TMEM136 (11760407_x_at) / Fold change /veh TMEM136 (11760407_x_at) / RFU CLDN22 /// WWC2 (11732394_at) / Fold change /veh CLDN22 /// WWC2 (11732394_at) / RFU HLA-DPB1 (11760878_x_at) / Fold change /veh HLA-DPB1 (11760878_x_at) / RFU SPINT1 (11716480_a_at) / Fold change /veh SPINT1 (11716480_a_at) / RFU GAP43 (11754022_s_at) / Fold change /veh GAP43 (11754022_s_at) / RFU A4GNT (11735810_at) / Fold change /veh A4GNT (11735810_at) / RFU PRB3 (11715151_x_at) / Fold change /veh PRB3 (11715151_x_at) / RFU TUBB4B (11761932_at) / Fold change /veh TUBB4B (11761932_at) / RFU CAPN14 (11732068_a_at) / Fold change /veh CAPN14 (11732068_a_at) / RFU TMCC2 (11721928_a_at) / Fold change /veh TMCC2 (11721928_a_at) / RFU IRGQ (11745062_a_at) / Fold change /veh IRGQ (11745062_a_at) / RFU FAM174B (11720279_a_at) / Fold change /veh FAM174B (11720279_a_at) / RFU TMPRSS4 (11748680_a_at) / Fold change /veh TMPRSS4 (11748680_a_at) / RFU FAM212B (11763350_a_at) / Fold change /veh FAM212B (11763350_a_at) / RFU PLEKHG5 (11743358_a_at) / Fold change /veh PLEKHG5 (11743358_a_at) / RFU ZSCAN30 (11745921_a_at) / Fold change /veh ZSCAN30 (11745921_a_at) / RFU CMKLR1 (11741424_a_at) / Fold change /veh CMKLR1 (11741424_a_at) / RFU LOC101060620 /// MAPK8IP1 (11723275_at) / Fold change /veh LOC101060620 /// MAPK8IP1 (11723275_at) / RFU SPTSSB (11747773_x_at) / Fold change /veh SPTSSB (11747773_x_at) / RFU PRSS12 (11739890_at) / Fold change /veh PRSS12 (11739890_at) / RFU BIN1 (11741810_x_at) / Fold change /veh BIN1 (11741810_x_at) / RFU WNT11 (11732464_a_at) / Fold change /veh WNT11 (11732464_a_at) / RFU C10orf10 (11716521_a_at) / Fold change /veh C10orf10 (11716521_a_at) / RFU C5orf56 (11738089_at) / Fold change /veh C5orf56 (11738089_at) / RFU CYB561 (11721691_x_at) / Fold change /veh CYB561 (11721691_x_at) / RFU ANKRD19P (11752326_a_at) / Fold change /veh ANKRD19P (11752326_a_at) / RFU OR2T12 /// OR2T33 /// OR2T8 (11738714_s_at) / Fold change /veh OR2T12 /// OR2T33 /// OR2T8 (11738714_s_at) / RFU VCAN (11748164_a_at) / Fold change /veh VCAN (11748164_a_at) / RFU JSRP1 (11732532_at) / Fold change /veh JSRP1 (11732532_at) / RFU KRTAP10-11 (11738290_x_at) / Fold change /veh KRTAP10-11 (11738290_x_at) / RFU MYO3A (11730013_a_at) / Fold change /veh MYO3A (11730013_a_at) / RFU EBF3 (11725865_a_at) / Fold change /veh EBF3 (11725865_a_at) / RFU CAMK2N1 (11719241_x_at) / Fold change /veh CAMK2N1 (11719241_x_at) / RFU C5orf56 (11738088_a_at) / Fold change /veh C5orf56 (11738088_a_at) / RFU OLFML3 (11715873_a_at) / Fold change /veh OLFML3 (11715873_a_at) / RFU LOC100653217 /// NTM (11731650_a_at) / Fold change /veh LOC100653217 /// NTM (11731650_a_at) / RFU MAPK11 (11762145_a_at) / Fold change /veh MAPK11 (11762145_a_at) / RFU FIZ1 (11724087_x_at) / Fold change /veh FIZ1 (11724087_x_at) / RFU OASL (11726364_x_at) / Fold change /veh OASL (11726364_x_at) / RFU SOX15 (11748057_x_at) / Fold change /veh SOX15 (11748057_x_at) / RFU CD79A (11719716_a_at) / Fold change /veh CD79A (11719716_a_at) / RFU HIST1H1D (11736915_at) / Fold change /veh HIST1H1D (11736915_at) / RFU CASKIN2 (11723855_a_at) / Fold change /veh CASKIN2 (11723855_a_at) / RFU LOC730098 (11760151_x_at) / Fold change /veh LOC730098 (11760151_x_at) / RFU OR4N2 (11742367_at) / Fold change /veh OR4N2 (11742367_at) / RFU PRRT2 (11749266_a_at) / Fold change /veh PRRT2 (11749266_a_at) / RFU SNX32 (11753110_a_at) / Fold change /veh SNX32 (11753110_a_at) / RFU CDHR5 (11726645_a_at) / Fold change /veh CDHR5 (11726645_a_at) / RFU RCAN1 (11760418_a_at) / Fold change /veh RCAN1 (11760418_a_at) / RFU FAM167A (11723789_a_at) / Fold change /veh FAM167A (11723789_a_at) / RFU FAM26E (11764081_at) / Fold change /veh FAM26E (11764081_at) / RFU ISYNA1 (11749810_s_at) / Fold change /veh ISYNA1 (11749810_s_at) / RFU ACY1 (11761880_at) / Fold change /veh ACY1 (11761880_at) / RFU 11764098_at / Fold change /veh 11764098_at / RFU SAMD14 (11745864_x_at) / Fold change /veh SAMD14 (11745864_x_at) / RFU NPB (11741838_a_at) / Fold change /veh NPB (11741838_a_at) / RFU TMPRSS6 (11731388_a_at) / Fold change /veh TMPRSS6 (11731388_a_at) / RFU KRTAP10-2 (11738614_at) / Fold change /veh KRTAP10-2 (11738614_at) / RFU ARHGAP8 /// PRR5-ARHGAP8 (11727945_x_at) / Fold change /veh ARHGAP8 /// PRR5-ARHGAP8 (11727945_x_at) / RFU KRTAP5-7 /// NADSYN1 (11734609_at) / Fold change /veh KRTAP5-7 /// NADSYN1 (11734609_at) / RFU RASL12 (11751679_a_at) / Fold change /veh RASL12 (11751679_a_at) / RFU CDKN2B (11736163_a_at) / Fold change /veh CDKN2B (11736163_a_at) / RFU PRF1 (11729649_at) / Fold change /veh PRF1 (11729649_at) / RFU, ZNF638 /// ZNF638-IT1 / Fold change vs veh, ZNF638 /// ZNF638-IT1 / RFU, PANK3 / Fold change vs veh, PANK3 / RFU, SH3YL1 / Fold change vs veh, SH3YL1 / RFU, ZEB2 / Fold change vs veh, ZEB2 / RFU, NRIP1 / Fold change vs veh, NRIP1 / RFU, PTTG1IP / Fold change vs veh, PTTG1IP / RFU, CAPN2 / Fold change vs veh, CAPN2 / RFU, MED14 / Fold change vs veh, MED14 / RFU, SNORA58 / Fold change vs veh, SNORA58 / RFU, C1orf63 / Fold change vs veh, C1orf63 / RFU, LRRFIP1 / Fold change vs veh, LRRFIP1 / RFU, NDUFAF7 / Fold change vs veh, NDUFAF7 / RFU, SLC12A2 / Fold change vs veh, SLC12A2 / RFU, IBTK / Fold change vs veh, IBTK / RFU, ESF1 / Fold change vs veh, ESF1 / Fold change vs veh, TMEM50B / RFU, TAOK1 / Fold change vs veh, TAOK1 / RFU, ACBD3 / Fold change vs veh, ACBD3 / RFU, TMA16 / Fold change vs veh, TMA16 / RFU, RWDD3 / Fold change vs veh, RWDD3 / RFU, BCAT1 / Fold change vs veh, BCAT1 / RFU, EDEM3 / Fold change vs veh, EDEM3 / RFU, TMEM33 / Fold change vs veh, TMEM33 / RFU, WDR75 / Fold change vs veh, WDR75 / RFU, AHCTF1 / Fold change vs veh, AHCTF1 / RFU, TFRC / Fold change vs veh, TFRC / RFU, ZDHHC17 / Fold change vs veh, ZDHHC17 / RFU, NOM1 / Fold change vs veh, NOM1 / RFU, ARL8B / Fold change vs veh, ARL8B / RFU, ZBTB11 / Fold change vs veh, ZBTB11 / RFU, TAMM41 / Fold change vs veh, TAMM41 / RFU, KIAA1704 /// LOC100996395 / Fold change vs veh, KIAA1704 /// LOC100996395 / RFU, ING1 / Fold change vs veh, ING1 / RFU, TRMT61B / Fold change vs veh, TRMT61B / RFU, FUBP3 / Fold change vs veh, FUBP3 / RFU, TP53 / Fold change vs veh, TP53 / RFU, TNKS2 / Fold change vs veh, TNKS2 / RFU, ZFP14 / Fold change vs veh, ZFP14 / RFU, ACTR2 / Fold change vs veh, ACTR2 / RFU, PPP3R1 / Fold change vs veh, PPP3R1 / RFU, PIK3R1 / Fold change vs veh, PIK3R1 / RFU, HNRNPA1 / Fold change vs veh, HNRNPA1 / RFU, RNF170 / Fold change vs veh, RNF170 / RFU, ZNF28 / Fold change vs veh, ZNF28 / RFU, RNGTT / Fold change vs veh, RNGTT / RFU, OGT / Fold change vs veh, OGT / RFU, BRD1 / Fold change vs veh, BRD1 / RFU, MARS / Fold change vs veh, MARS / RFU, ZNF655 / Fold change vs veh, ZNF655 / RFU, FAHD1 / Fold change vs veh, FAHD1 / RFU, BDP1 / Fold change vs veh, BDP1 / RFU, LRRCC1 / Fold change vs veh, LRRCC1 / RFU, ARID1A / Fold change vs veh, ARID1A / RFU, ZNF146 / Fold change vs veh, ZNF146 / RFU, ZNF330 / Fold change vs veh, ZNF330 / RFU, GPN3 / Fold change vs veh, GPN3 / RFU, C9orf123 / Fold change vs veh, C9orf123 / RFU, N4BP2L2 / Fold change vs veh, N4BP2L2 / RFU, ARFIP1 / Fold change vs veh, ARFIP1 / RFU, FAM179B / Fold change vs veh, FAM179B / RFU, BCL10 / Fold change vs veh, BCL10 / RFU, UHRF1BP1L / Fold change vs veh, UHRF1BP1L / RFU, BET1 / Fold change vs veh, BET1 / RFU, CNOT2 / Fold change vs veh, CNOT2 / RFU, ZNF268 / Fold change vs veh, ZNF268 / Fold change vs veh, ZNF507 / RFU, DGCR2 / Fold change vs veh, DGCR2 / RFU, WDSUB1 / Fold change vs veh, WDSUB1 / Fold change vs veh, HSP90B1 /// MIR3652 / RFU, ADSS / Fold change vs veh, ADSS / RFU, GK / Fold change vs veh, GK / RFU, ZNF148 / Fold change vs veh, ZNF148 / RFU, TAF9 / Fold change vs veh, TAF9 / RFU, SLC1A5 / Fold change vs veh, SLC1A5 / RFU, SLMO2 / Fold change vs veh, SLMO2 / RFU, ABCC4 / Fold change vs veh, ABCC4 / RFU, LOC101060439 /// RAP1B / Fold change vs veh, LOC101060439 /// RAP1B / RFU, RFX7 / Fold change vs veh, RFX7 / RFU, GTPBP10 / Fold change vs veh, GTPBP10 / RFU, CNEP1R1 / Fold change vs veh, CNEP1R1 / RFU, BIVM-ERCC5 /// ERCC5 / Fold change vs veh, BIVM-ERCC5 /// ERCC5 / RFU, ILF3 / Fold change vs veh, ILF3 / RFU 11762660_at / Fold change /veh 11762660_at / RFU VCAN (11757783_s_at) / Fold change /veh VCAN (11757783_s_at) / RFU DDX43 (11728927_at) / Fold change /veh DDX43 (11728927_at) / RFU KRT8 (11758188_x_at) / Fold change /veh KRT8 (11758188_x_at) / RFU NKD1 (11759106_at) / Fold change /veh NKD1 (11759106_at) / RFU SRD5A1 (11742802_a_at) / Fold change /veh SRD5A1 (11742802_a_at) / RFU TPSAB1 /// TPSB2 (11721975_s_at) / Fold change /veh TPSAB1 /// TPSB2 (11721975_s_at) / RFU GSTM3 (11746129_a_at) / Fold change /veh GSTM3 (11746129_a_at) / RFU IL23R (11737362_x_at) / Fold change /veh IL23R (11737362_x_at) / RFU TMEM51 (11727254_a_at) / Fold change /veh TMEM51 (11727254_a_at) / RFU PIWIL2 (11732686_x_at) / Fold change /veh PIWIL2 (11732686_x_at) / RFU ORM1 (11744905_x_at) / Fold change /veh ORM1 (11744905_x_at) / RFU CCDC152 (11743942_at) / Fold change /veh CCDC152 (11743942_at) / RFU ECM1 (11717891_a_at) / Fold change /veh ECM1 (11717891_a_at) / RFU IL23R (11748794_a_at) / Fold change /veh IL23R (11748794_a_at) / RFU TNFAIP8L3 (11732012_x_at) / Fold change /veh TNFAIP8L3 (11732012_x_at) / RFU MBOAT4 (11741988_at) / Fold change /veh MBOAT4 (11741988_at) / RFU 11764193_at / Fold change /veh 11764193_at / RFU TMEM53 (11763286_at) / Fold change /veh TMEM53 (11763286_at) / RFU MAGEB2 (11727129_at) / Fold change /veh MAGEB2 (11727129_at) / RFU TMEM200A (11744735_a_at) / Fold change /veh TMEM200A (11744735_a_at) / RFU CCDC152 (11751479_a_at) / Fold change /veh CCDC152 (11751479_a_at) / RFU FAM211A (11726209_a_at) / Fold change /veh FAM211A (11726209_a_at) / RFU RGS16 (11746705_a_at) / Fold change /veh RGS16 (11746705_a_at) / RFU VCAN (11755009_s_at) / Fold change /veh VCAN (11755009_s_at) / RFU RHOB (11743442_s_at) / Fold change /veh RHOB (11743442_s_at) / RFU RGS16 (11720943_a_at) / Fold change /veh RGS16 (11720943_a_at) / RFU RGS16 (11720944_at) / Fold change /veh RGS16 (11720944_at) / RFU, VPS4B / Fold change vs veh, VPS4B / RFU, CREB1 / Fold change vs veh, CREB1 / RFU, DNAJC13 / Fold change vs veh, DNAJC13 / RFU, GNAQ / Fold change vs veh, GNAQ / RFU, CDK5R1 / Fold change vs veh, CDK5R1 / RFU, ZRANB3 / Fold change vs veh, ZRANB3 / RFU, CUL4A / Fold change vs veh, CUL4A / RFU, CCNY / Fold change vs veh, CCNY / RFU, UFL1 / Fold change vs veh, UFL1 / RFU, COG3 / Fold change vs veh, COG3 / RFU, DIAPH2 / Fold change vs veh, DIAPH2 / RFU, SKA2 / Fold change vs veh, SKA2 / RFU, AFF3 / Fold change vs veh, AFF3 / RFU, LMF1 / Fold change vs veh, LMF1 / RFU, IPO11 / Fold change vs veh, IPO11 / RFU, DFFB / Fold change vs veh, DFFB / RFU, FOXP1 / Fold change vs veh, FOXP1 / RFU, CARD8 / Fold change vs veh, CARD8 / RFU, STRN3 / Fold change vs veh, STRN3 / RFU, ADK / Fold change vs veh, ADK / RFU, RASSF2 / Fold change vs veh, RASSF2 / RFU, WIPF1 / Fold change vs veh, WIPF1 / RFU, LARP1B / Fold change vs veh, LARP1B / RFU, RASA1 / Fold change vs veh, RASA1 / RFU, RB1 / Fold change vs veh, RB1 / RFU, PPFIA1 / Fold change vs veh, PPFIA1 / RFU, MAT2A / Fold change vs veh, MAT2A / RFU, CCT5 / Fold change vs veh, CCT5 / RFU, WDR92 / Fold change vs veh, WDR92 / RFU, CUX1 / Fold change vs veh, CUX1 / RFU, TTC7A / Fold change vs veh, TTC7A / RFU, TMEM135 / Fold change vs veh, TMEM135 / RFU, DEPTOR / Fold change vs veh, DEPTOR / RFU, CPM / Fold change vs veh, CPM / RFU, DNAJB6 / Fold change vs veh, DNAJB6 / RFU, CACNA2D3 / Fold change vs veh, CACNA2D3 / RFU, DTX4 / Fold change vs veh, DTX4 / RFU, TFCP2 / Fold change vs veh, TFCP2 / RFU, GMCL1 /// GMCL1P1 / Fold change vs veh, GMCL1 /// GMCL1P1 / RFU, AEBP2 / Fold change vs veh, AEBP2 / RFU, SNHG1 /// SNORD22 /// SNORD25 /// SNORD26 /// SNORD27 /// SNORD28 /// SNORD29 /// SNORD31 / Fold change vs veh, SNHG1 /// SNORD22 /// SNORD25 /// SNORD26 /// SNORD27 /// SNORD28 /// SNORD29 /// SNORD31 / Fold change (Aza/veh), C12orf56 (ProbeSet 11735607_a_at) / Fold change (ACY-1035/veh), C12orf56 (ProbeSet 11735607_a_at) / Fold change (Aza/veh), FGFR1OP (ProbeSet 11751329_s_at) / Fold change (ACY-1035/veh), FGFR1OP (ProbeSet 11751329_s_at) / Fold change (Aza/veh), VPS36 (ProbeSet 11739960_a_at) / Fold change (ACY-1035/veh), VPS36 (ProbeSet 11739960_a_at) / RFU SYPL1 (11715823_x_at) / Fold change /veh SYPL1 (11715823_x_at) / RFU IGFBP7 (11715501_s_at) / Fold change /veh IGFBP7 (11715501_s_at) / RFU REEP3 (11722064_at) / Fold change /veh REEP3 (11722064_at) / RFU IGLL1 (11728026_x_at) / Fold change /veh IGLL1 (11728026_x_at): dose or concentration left out as unconfirmed. The experiment is classed as cell-based, human.

Take `Nc1ncn([C@@H]2O[C@H](CO)[C@@H](O)[C@H]2O)c(=O)n1` [azacitidine]: the “Fold change vs veh, NRIP1” value stood at 0.86.

Source of the values: paper PMC5218480 (PLoS ONE, 2017).
